Data on 2 molecules can be found in publication PMC5797143, “Epigenetic modulation of inflammation and synaptic plasticity promotes resilience against stress in mice” (Nature Communications, 2018).

In data set [1] the test system is MSN-enriched primary neurons and PBMCs. As to the kind of experiment: LDH release assay. It is filed as cell-based, mouse. How it is done:
MTT and LDH release assays were conducted in MSN-enriched primary neurons and in PBMCs[64]. Cellular cytotoxicity was conducted in HepG2 cells using high content screening (HCS) protocols. Briefly, HepG2 cells were plated on 384-well tissue culture treated black walled clear bottomed polystyrene plates and treated with varying concentrations of Mal-gluc or DHCA. The cells were loaded with the relevant dye/antibody for each cell-health marker following incubation, including cell count, markers for nuclear size, DNA structure, cell membrane permeability, mitochondrial mass, mitochondrial membrane potential and cytochrome C release. The plates were then scanned using an automated fluorescent cellular imager ArrayScanr (Thermo Scientific Cellomics).
Background: LDH in the medium is a marker of cell lysis.

Data set [2] in a line: Plasma stability, mouse plasma. It is filed as in vitro ADME. Particulars: 37 °C. How it is done:
(§1) Compound stability in mouse and human plasma and in mouse brain homogenate were conducted, [45]. Specifically, Mal-gluc or DHCA was incubated in duplicate with plasma at 37 °C and samples were taken at various time points and mixed with three volumes of ice-cold Stop Solution (methanol containing propranolol, diclofenac, or other internal standard). Samples were centrifuged to remove precipitated protein, and the supernatants were analyzed by LC/MS/MS to quantitate for remaining test compound. Data are converted to percentage remaining by dividing by the time zero concentration value. Data are fit to a first-order decay model to determine half-life. Plasma protein binding were conducted using both mouse and human plasma.

Data set [3] is described as follows: Plasma stability, human plasma. In kind it is in vitro ADME. Particulars: 37 °C. On the procedure:
as §1

A short description of data set [4]: Brain homogenate stability. In kind it is in vitro ADME. How it is done: as §1
For data set [5], the system named is C57BL/6 mice subjected to RSDS. As to the kind of experiment: RSDS, prophylactic treatment. In kind it is in vivo, mouse. The conditions noted are these: 5 mg/kg-BW/day DHCA or 500 ng/kg-BW/day Mal-gluc alone prior to RSDS. On the procedure: To test the efficacy of BDPP in promoting resilience in stress-mediated depression, we treated C57BL/6 male mice with BDPP or vehicle for 2 weeks prior to and throughout RSDS and then performed social avoidance/interaction (SI) testing (Fig. 1a).
Based on the dose–response studies, we chose 5 mg/kg-BW/day DHCA and 500 ng/kg-BW/day Mal-gluc for the preclinical studies. We tested the prophylactic effect by treating mice with a mixture of DHCA/Mal-gluc for 2 weeks prior to and throughout RSDS (Fig. 3c). […] Following SI testing, mice were subjected to a sucrose preference test to evaluate the treatment effect on stress-induced anhedonia.
Male C57BL/6 mice (8-week-old) were randomly grouped into two groups: one group received regular drinking water; the other group was treated with BDPP composed of GSPE, RESV and CGJ, delivered through their drinking water, starting 2 weeks prior to RSDS and throughout RSDS and SI testing. The calculated daily intake of GSPE was 200 mg/kg body weight (BW), RESV was 300 mg/kg BW and CGJ was 1 ml/day.
To facilitate the follow-up sucrose preference test, the delivery of the drinking solution was through two 50-ml tubes with sipper top for each cage, starting from the day of initiation of treatment and the two tubes were regularly switched during the treatment. In parallel control studies, mice received similar treatment but were not subjected to RSDS. For therapeutic studies, susceptible mice (SI <0.8) were identified and randomly grouped into two groups either treated with vehicle or DHCA/Mal-gluc for 2 weeks. Mice were subjected to SI, sucrose preference, and splash testing. For testing the therapeutic efficacy of Imipramine, susceptible mice were treated with Imipramine (20 mg/kg-BW/day, i.p.) for 34 days. On day 35, mice were tested for SI 15–20 min after the last injection. […]
All social interaction (SI) tests were performed under red-light conditions. […] Their movements were automatically monitored and recorded (Ethovision 3.0; Noldus Information Technology) for 2.5 min in the absence (target absent phase) of a novel CD-1 mouse and followed by 2.5 min exploratory behavior in the presence of a caged CD-1 mouse (target present phase). SI behavior was then calculated as a ratio of the time spent in the interaction zone with the target present divided by the time spent in the interaction zone with the target absent. […]
Mice were given access to a two-bottle choice of water or 1% sucrose solution and the consumption of each solution was recorded once every 24 h for 48 or 72 h. […] Sucrose preference was calculated as a percentage of sucrose consumption over total liquid consumption. […]

Structures are written as SMILES.

A word on the half-life: it is the time needed for the level to fall by half in the phase considered. Higher therefore signals slow loss.

Take `O=C(O)CCc1ccc(O)c(O)c1` [DHCA, 3(3,4-dihydroxy-phenyl) propionic acid]: the “LDH assay, % of vehicle control” value in data set [1] stood at 100%. The half-life in data set [2] (mouse, plasma) was determined as 44.1 min; in data set [3] (human, plasma), 66.7 min; in data set [4] (mouse), 16.1 min. In data set [5], the “anhedonia (sucrose preference), single compound treatment” value was “neither treatment significantly promoted resilience (Supplementary Fig. 7a) or alleviate anhedonia”. In addition, the “resilience (SI), single compound treatment” value in data set [5] was “neither treatment significantly promoted resilience”.
With `COc1cc(-c2[o+]c3cc(O)cc(O)c3cc2O[C@@H]2O[C@H](CO)[C@@H](O)[C@H](O)[C@H]2O)cc(OC)c1O` [Mal-gluc], the “LDH assay, % of vehicle control” value in data set [1] is reported as 100%. For the same molecule, the “Plasma stability, Half-life (mouse plasma)” value in data set [2] worked out at 201 min. For the same molecule, the “Plasma stability, Half-life (human plasma)” value in data set [3] was determined as 250 min. Further, the “Brain homogenate stability, Half-life (mouse homogenate)” value in data set [4] worked out at 29.4 min. Further, in data set [5], the “anhedonia (sucrose preference), single compound treatment” value is “neither treatment significantly promoted resilience (Supplementary Fig. 7a) or alleviate anhedonia” and the “resilience (SI), single compound treatment” value is reported as “neither treatment significantly promoted resilience”.
